# From PubChem BioAssay (NCI)
#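 Step 1: Grow cells in 96-well plates. Step 2: Expose to compound for 48 hours at 5 concentrations. Step 3: Interpolate endpoints linearly; if unreached, use highest concentration. TGI: concentration producing complete growth inhibition.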
# Tests used:
# Assay in all cases: growth of human tumour cells (NCI), 48 h
# IGROV1 ovarian = test system: IGROV1 ovarian
# EKVX NSCLC = test system: EKVX NSCLC
# A549 NSCLC = test system: A549 NSCLC
# MDA-MB-435 = test system: MDA-MB-435
# SF-268 CNS = test system: SF-268 CNS
# UACC-257 melanoma = test system: UACC-257 melanoma
# OVCAR-8 ovarian = test system: OVCAR-8 ovarian
# NCI-H522 lung = test system: NCI-H522 lung
# UACC-62 melanoma = test system: UACC-62 melanoma
# KM12 colon = test system: KM12 colon
SMILES,TGI (IGROV1 ovarian) [µM],TGI (EKVX NSCLC) [µM],TGI (A549 NSCLC) [µM],TGI (MDA-MB-435) [µM],TGI (SF-268 CNS) [µM],TGI (UACC-257 melanoma) [µM],TGI (OVCAR-8 ovarian) [µM],TGI (NCI-H522 lung) [µM],TGI (UACC-62 melanoma) [µM],TGI (KM12 colon) [µM]
CCN(CC)CCN(C(=Nc1ccccc1)N1CCOCC1)c1ccccc1,> 100,> 100,> 100,> 100,> 100,> 100,> 100,> 100,> 100,> 100
CCNC(=O)Cc1nc2c(N)ncnc2n1C1OC(CO)C(O)C1O (stereo not given),> 100,> 100,> 100,> 100,> 100,> 100,> 100,> 100,> 100,> 100
NC1=NCC(CN2CCOCC2)O1 (stereo not given),> 100,> 100,> 100,> 100,> 100,> 100,> 100,> 100,> 100,> 100
CCN(CC)CCn1c(=O)c2cccnc2n2c3c(=O)n(C)c(=O)n(C)c3nc12,> 100,> 100,> 100,> 100,> 100,> 100,> 100,> 100,> 100,> 100
COc1ccc2c(c1)/C(=C\c1c(Cl)nc3sc(C)cn13)C(=O)N2,16.7,21.2,17,1.43,17.3,21,15.1,14.4,16.4,15.2
N=C(N)SCc1ccc2c(c1)Sc1ccccc1O2,11.9,27,23,19.1,27.8,14.2,32.5,3.09,19.7,16.4
O=C1NCCN1/N=C/c1c(Cl)n(-c2ccccc2)c2ccccc12,41.7,91.5,> 100,33.1,59,58.5,44.8,44.4,41.5,34.2
CN(C)c1ccc(C(=N/N=C2\C(=O)Nc3ccccc32)c2ccc(N(C)C)cc2)cc1,9.07,> 54.4,43.2,0.0567,29.2,> 83.8,22.4,0.649,33.5,33.1
CSC(=S)N(C)C,> 100,> 100,> 100,> 100,> 100,> 100,> 100,> 100,> 100,> 100
NS(=O)(=O)c1cc2c(cc1Cl)NC(CCC(=O)O)=NS2(=O)=O,> 100,> 100,> 100,> 100,> 100,> 100,> 100,> 100,> 100,> 100
CN1CSC(=S)N(c2c3ccccc3nc3ccc(Br)cc23)C1,25.1,33.1,21.6,26.5,27.4,24.8,> 51.2,12.6,27.4,33.6
O=C(O)c1ccccc1CC1Cc2ccccc2C1=O (stereo not given),> 100,> 100,> 100,> 100,> 100,> 100,> 100,> 100,> 100,> 100
O=c1c2sc(=S)n(-c3ccc(F)cc3)c2ncn1/N=C/c1ccc(F)cc1F,89.1,39.2,> 100,> 100,43.1,> 100,44.9,> 100,> 100,> 100
[O-][n+]1ccccc1Sc1nc(Sc2cccc[n+]2[O-])nc(Sc2cccc[n+]2[O-])n1,3.03,5.81,13.9,4.15,10.1,6.23,1.99,2.23,3.67,3.88
COc1cccc2c1OC1(C=C2)Oc2ccccc2C(=O)N1C (stereo not given),> 100,> 100,> 100,59.8,> 100,> 100,54.4,> 100,> 100,> 100
Cc1cc(N(CCOS(C)(=O)=O)CCOS(C)(=O)=O)ccc1C=O,39.2,22.9,45.7,28.8,> 100,48,> 100,0.379,15.7,54.6
Cc1ccc(-c2[nH]c(=O)n(C3OC(CO)C(O)C(O)C3O)c(=O)c2C#N)cc1 (stereo not given),> 100,> 100,> 100,> 100,> 100,> 100,> 100,> 100,> 100,> 100
COc1ccc(-c2nc(SCC(=O)N/N=C/c3ccc(N(C)C)cc3)[nH]c2-c2ccc(OC)cc2)cc1,> 100,> 100,> 100,> 100,> 100,> 100,> 100,> 100,> 100,> 100
CC1OC(OC2C(OC(=O)[C@]34CCC(C)(C)C[C@H]3C3=CC[C@@H]5[C@@]6(C)CC[C@H](OC7OC(C(=O)O)C(O)C(O)C7O)C(C)(C)[C@@H]6CC[C@@]5(C)[C@]3(C)C[C@H]4O)OCC(O)C2O)C(O)C(OC2OCC(O)(CO)C2O)C1OC1OCC(O)C(O)C1O (stereo not given in full),33.3,16.2,14.8,20.7,33.7,26.6,33.4,16.5,31,16.3
COc1cc(/C=C/C(=O)CC(=O)/C=C/c2ccc(OC(=O)CCCCC3CCSS3)c(OC)c2)ccc1OC(=O)CCCCC1CCSS1 (stereo not given),> 100,> 100,> 100,> 100,> 100,> 100,> 100,> 100,> 100,> 100
CC(=O)Nc1nc(C#N)[nH]c1C#N,> 100,> 100,> 100,> 100,> 100,> 100,> 100,> 100,> 100,> 100
